Measured values published in ChEMBL document CHEMBL1144672, “The use of ligand-based de novo design for scaffold hopping and sidechain optimization: two case studies” (Bioorg Med Chem, 2008).

Key:
[1] = biological target: T1, Gonadotropin-releasing hormone receptor (Homo sapiens) (UniProt P30968); test: Inhibition of GnRH receptor at 10 uM
T1 sequence (whole entry): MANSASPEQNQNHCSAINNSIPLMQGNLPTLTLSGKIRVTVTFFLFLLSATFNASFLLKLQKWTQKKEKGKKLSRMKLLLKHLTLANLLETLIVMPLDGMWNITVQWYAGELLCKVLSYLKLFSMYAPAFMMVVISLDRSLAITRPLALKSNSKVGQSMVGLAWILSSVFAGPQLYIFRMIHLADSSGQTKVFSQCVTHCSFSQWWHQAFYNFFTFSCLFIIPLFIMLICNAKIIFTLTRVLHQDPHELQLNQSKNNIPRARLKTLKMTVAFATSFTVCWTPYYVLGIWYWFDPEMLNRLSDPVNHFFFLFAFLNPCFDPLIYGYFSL

[2] = biological target: T2, Gonadotropin-releasing hormone receptor (Homo sapiens, UniProt P30968); test: Inhibition of GnRH receptor
T2 sequence (P30968 whole entry): T1 sequence (whole entry)

Row | SMILES | inhibition [1] [%] | Ki [2] [nM]
1 | CC(C)CN(C)CCn1c(=O)c2c(n(Cc3c(F)cccc3F)c1=O)CCN(Cc1ccc(OC(F)(F)F)cc1)C2 | 73 | 2500
2 | CC(C)CN(C)CCn1c(=O)c2c(n(CCOc3ccccc3)c1=O)CCN(CCCC(F)(F)F)C2 | 0 | –
3 | Cc1ccc(CN2CCc3c(c(=O)n(CC4CCNCC4)c(=O)n3Cc3c(F)cccc3F)C2)c(C)c1 | 72 | 1900
4 | COc1cccc(-c2c(C)n(Cc3c(F)cccc3F)c(=O)n(CC(C)NCc3nccs3)c2=O)c1F (stereo not drawn) | – | 6
5 | Cc1ccc(CN2CCc3c(c(=O)n(CC4NCCc5ccccc54)c(=O)n3Cc3c(F)cccc3F)C2)c(C)c1 (stereo not drawn) | 95 | 110
6 | CCOC(=O)c1cn(Cc2c(F)cccc2F)c2cc(-c3ccc(NC(=O)CC)cc3)c(CN(C)Cc3ccccc3)cc2c1=O | – | 50
7 | COc1ccc(CN2CC3CC(c4ccc(N(C)C)c5ccccc45)N4C(=O)N(CCN5CCOCC5)C(=O)C34C2)cc1NC(C)=O (stereo not drawn) | – | 21
8 | O=c1c2c(n(Cc3c(F)cccc3F)c(=O)n1CCN1CCc3ccccc3C1)CCN(CC1CCCC1)C2 | 16 | –
9 | NC(CC1CCCCC1)Cn1c(=O)c2c(n(Cc3c(F)cccc3F)c1=O)CCN(Cc1ccc(Cl)cc1)C2 (stereo not drawn) | 66 | 3200
10 | CC(CCN1CCc2c(c(=O)n(CCN3CCCCC3)c(=O)n2Cc2c(F)cccc2F)C1)CC(C)(C)C (stereo not drawn) | 50 | 4400
11 | CNC(Cn1c(=O)c2c(n(Cc3c(F)cccc3F)c1=O)CCN(Cc1ccc(C)cc1C)C2)c1ccccc1 (stereo not drawn) | 100 | 50
12 | Cc1cc(C)cc(-c2[nH]c3ccc(C(C)(C)C(=O)N4C5CCC4CC5)cc3c2C(C)CNCCCCc2ccnnc2)c1 (stereo not drawn) | – | 0.7
